Results as given in the supplement of paper PMC10627819.

What was measured:
B. subtilis 168 [1] = assay: fitness (endpoint OD595 vs no drug) (fraction); higher = more growth
Method in brief: (§1)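 Fitness was defined as the optical density at the transition into stationary phase relative to the robust mean of no-drug control wells. Values were capped at 1. Cultures were started at OD595 0.01 in 384-well plates (30 µl, or 55 µl for S. pneumoniae) in TSB, LB Lennox or CY at 37 °C. OD595 was recorded every 30 min over 14 h, with the first reading subtracted as background.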

S. aureus DSM 20231 [2] = assay: as above
Method in brief: as §1

S. aureus Newman [3] = assay: as above
Method in brief: as §1

S. pneumoniae D39V [4] = assay: as above
Method in brief: as §1

B. subtilis 168 [5] = assay: Bliss interaction score (quartile over a dose matrix) (fitness difference); higher = more antagonism (negative = synergy)
Method in brief: (§2)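 OD595 was read at entry into stationary phase and expressed relative to the robust mean of the no-drug wells on the same plate, capped at 1. The resulting ratio is the fitness value. The Bliss score, observed fitness minus product-based expected fitness with single-drug fitness inferred from combinations, is summarised by quartiles over technical, biological and donor/recipient replicates.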

S. aureus DSM 20231 [6] = assay: as above
Method in brief: as §2

S. aureus Newman [7] = assay: as above
Method in brief: as §2

S. pneumoniae D39V [8] = assay: as above
Method in brief: as §2
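For Bliss interaction score (quartile over a dose matrix) in this document: first quartile when negative (synergy) and third quartile when positive (antagonism).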

COc1cccc2c1C(=O)c1c(O)c3c(c(O)c1C2=O)C[C@@](O)(C(=O)CO)C[C@@H]3O[C@H]1C[C@H](N)[C@H](O)[C@H](C)O1 [Doxorubicin] + CC1=C\[C@@H](O)CC(=O)Cc2nc(co2)C(=O)N2CCC=C2C(=O)O[C@H](C(C)C)[C@H](C)/C=C/C(=O)NC\C=C\1 [Virginiamycin M1]
fitness
Settings	first compound 0.25 µg/mL	first compound 0.5 µg/mL	first compound 0.625 µg/mL	first compound 1 µg/mL	first compound 1.25 µg/mL	first compound 2.5 µg/mL
B. subtilis 168 [1], partner 0.0625 µg/mL	–	–	0.975	–	0.901	0.653
B. subtilis 168 [1], partner 0.125 µg/mL	–	–	0.939	–	0.904	0.639
B. subtilis 168 [1], partner 0.25 µg/mL	–	–	0.96	–	0.911	0.7
S. aureus DSM 20231 [2], partner 0.0625 µg/mL	–	–	0.874	–	0.872	0.779
S. aureus DSM 20231 [2], partner 0.125 µg/mL	–	–	0.944	–	0.903	0.82
S. aureus DSM 20231 [2], partner 0.25 µg/mL	–	–	0.873	–	0.862	0.802
S. aureus Newman [3], partner 0.0625 µg/mL	–	–	0.76	–	0.766	0.768
S. aureus Newman [3], partner 0.125 µg/mL	–	–	0.795	–	0.802	0.756
S. aureus Newman [3], partner 0.25 µg/mL	–	–	0.788	–	0.784	0.746
S. pneumoniae D39V [4], partner 0.5 µg/mL	0.964	0.961	–	0.969	–	–
S. pneumoniae D39V [4], partner 1 µg/mL	0.997	≥ 1	–	0.951	–	–
S. pneumoniae D39V [4], partner 2 µg/mL	0.92	0.9	–	0.898	–	–

fitness, one replicate
Settings	first compound 0.25 µg/mL	first compound 0.5 µg/mL	first compound 0.625 µg/mL	first compound 1 µg/mL	first compound 1.25 µg/mL	first compound 2.5 µg/mL
S. aureus DSM 20231 [2], partner 0.5 µg/mL	–	–	0.873	–	0.803	0.706
S. aureus DSM 20231 [2], partner 1 µg/mL	–	–	0.769	–	0.708	0.761
S. aureus Newman [3], partner 0.5 µg/mL	–	–	0.81	–	0.809	0.703
S. aureus Newman [3], partner 1 µg/mL	–	–	0.924	–	0.871	0.793
S. aureus Newman [3], partner 2 µg/mL	–	–	0.837	–	0.696	0.664
S. pneumoniae D39V [4], partner 0.15 µg/mL	0.86	0.865	–	0.911	–	–
S. pneumoniae D39V [4], partner 0.3 µg/mL	0.823	0.836	–	0.888	–	–

Settings	Bliss interaction score
B. subtilis 168 [5]	0.0827
S. aureus DSM 20231 [6]	-0.0467
S. aureus Newman [7]	-0.0655
S. pneumoniae D39V [8]	0.0614

COc1cccc2c1C(=O)c1c(O)c3c(c(O)c1C2=O)C[C@@](O)(C(=O)CO)C[C@@H]3O[C@H]1C[C@H](N)[C@H](O)[C@H](C)O1 [Doxorubicin] + CCN(CC)CCOC(=O)c1ccc(N)cc1 [Procaine]
fitness
Settings	first compound 0.25 µg/mL	first compound 0.5 µg/mL	first compound 0.625 µg/mL	first compound 1 µg/mL	first compound 1.25 µg/mL	first compound 2.5 µg/mL
B. subtilis 168 [1], partner 85.5 µg/mL	–	–	0.934	–	0.89	0.672
B. subtilis 168 [1], partner 171 µg/mL	–	–	0.961	–	0.894	0.654
B. subtilis 168 [1], partner 342 µg/mL	–	–	0.887	–	0.879	0.702
S. aureus DSM 20231 [2], partner 85.5 µg/mL	–	–	0.829	–	0.823	0.748
S. aureus DSM 20231 [2], partner 171 µg/mL	–	–	0.926	–	0.916	0.832
S. aureus DSM 20231 [2], partner 342 µg/mL	–	–	0.898	–	0.866	0.804
S. aureus Newman [3], partner 85.5 µg/mL	–	–	0.801	–	0.823	0.745
S. aureus Newman [3], partner 171 µg/mL	–	–	0.79	–	0.835	0.752
S. aureus Newman [3], partner 342 µg/mL	–	–	0.815	–	0.747	0.764
S. pneumoniae D39V [4], partner 85.5 µg/mL	0.988	≥ 1	–	0.917	–	–
S. pneumoniae D39V [4], partner 171 µg/mL	0.963	0.98	–	0.892	–	–
S. pneumoniae D39V [4], partner 342 µg/mL	0.97	0.996	–	0.855	–	–

Settings	Bliss interaction score
B. subtilis 168 [5]	0.095
S. aureus DSM 20231 [6]	-0.0642
S. aureus Newman [7]	-0.058
S. pneumoniae D39V [8]	0.07

COc1cccc2c1C(=O)c1c(O)c3c(c(O)c1C2=O)C[C@@](O)(C(=O)CO)C[C@@H]3O[C@H]1C[C@H](N)[C@H](O)[C@H](C)O1 [Doxorubicin] + CN1C2=CC=CC=C2N=C3C1=CC=CC3=O [Pyocyanin]
Settings	fitness
B. subtilis 168 [1], first compound 0.625 µg/mL, partner 1.25 µg/mL	0.888
B. subtilis 168 [1], first compound 0.625 µg/mL, partner 2.5 µg/mL	0.878
B. subtilis 168 [1], first compound 0.625 µg/mL, partner 5 µg/mL	0.684
B. subtilis 168 [1], first compound 1.25 µg/mL, partner 1.25 µg/mL	0.853
B. subtilis 168 [1], first compound 1.25 µg/mL, partner 2.5 µg/mL	0.841
B. subtilis 168 [1], first compound 1.25 µg/mL, partner 5 µg/mL	0.625
B. subtilis 168 [1], first compound 2.5 µg/mL, partner 1.25 µg/mL	0.631
B. subtilis 168 [1], first compound 2.5 µg/mL, partner 2.5 µg/mL	0.54
S. aureus DSM 20231 [2], first compound 0.625 µg/mL, partner 1.25 µg/mL	0.863
S. aureus DSM 20231 [2], first compound 0.625 µg/mL, partner 2.5 µg/mL	0.827
S. aureus DSM 20231 [2], first compound 0.625 µg/mL, partner 5 µg/mL	0.578
S. aureus DSM 20231 [2], first compound 1.25 µg/mL, partner 1.25 µg/mL	0.857
S. aureus DSM 20231 [2], first compound 1.25 µg/mL, partner 2.5 µg/mL	0.865
S. aureus DSM 20231 [2], first compound 1.25 µg/mL, partner 5 µg/mL	0.641
S. aureus DSM 20231 [2], first compound 2.5 µg/mL, partner 1.25 µg/mL	0.744
S. aureus DSM 20231 [2], first compound 2.5 µg/mL, partner 2.5 µg/mL	0.699
S. aureus DSM 20231 [2], first compound 2.5 µg/mL, partner 5 µg/mL	0.487
S. aureus Newman [3], first compound 0.625 µg/mL, partner 1.25 µg/mL	0.733
S. aureus Newman [3], first compound 0.625 µg/mL, partner 2.5 µg/mL	0.687
S. aureus Newman [3], first compound 0.625 µg/mL, partner 5 µg/mL	0.438
S. aureus Newman [3], first compound 1.25 µg/mL, partner 1.25 µg/mL	0.716
S. aureus Newman [3], first compound 1.25 µg/mL, partner 2.5 µg/mL	0.639
S. aureus Newman [3], first compound 2.5 µg/mL, partner 1.25 µg/mL	0.674
S. aureus Newman [3], first compound 2.5 µg/mL, partner 2.5 µg/mL	0.584
S. pneumoniae D39V [4], first compound 0.25 µg/mL, partner 0.325 µg/mL	0.986
S. pneumoniae D39V [4], first compound 0.25 µg/mL, partner 0.65 µg/mL	0.92
S. pneumoniae D39V [4], first compound 0.25 µg/mL, partner 1.3 µg/mL	0.766
S. pneumoniae D39V [4], first compound 0.5 µg/mL, partner 0.325 µg/mL	≥ 1
S. pneumoniae D39V [4], first compound 0.5 µg/mL, partner 0.65 µg/mL	0.938
S. pneumoniae D39V [4], first compound 0.5 µg/mL, partner 1.3 µg/mL	0.773
S. pneumoniae D39V [4], first compound 1 µg/mL, partner 0.325 µg/mL	0.942
S. pneumoniae D39V [4], first compound 1 µg/mL, partner 0.65 µg/mL	0.868
S. pneumoniae D39V [4], first compound 1 µg/mL, partner 1.3 µg/mL	0.729

Settings	Bliss interaction score
B. subtilis 168 [5]	0.0456
S. aureus DSM 20231 [6]	-0.0672
S. aureus Newman [7]	-0.0556
S. pneumoniae D39V [8]	0.0322

COc1cccc2c1C(=O)c1c(O)c3c(c(O)c1C2=O)C[C@@](O)(C(=O)CO)C[C@@H]3O[C@H]1C[C@H](N)[C@H](O)[C@H](C)O1 [Doxorubicin] + CN(N=O)C(=O)N[C@@H](C=O)[C@@H](O)[C@H](O)[C@H](O)CO [Streptozotocin]
fitness
Settings	first compound 0.25 µg/mL	first compound 0.5 µg/mL	first compound 0.625 µg/mL	first compound 1 µg/mL	first compound 1.25 µg/mL	first compound 2.5 µg/mL
B. subtilis 168 [1], partner 0.15 µg/mL	–	–	0.961	–	0.957	0.663
B. subtilis 168 [1], partner 0.3 µg/mL	–	–	≥ 1	–	0.956	0.582
B. subtilis 168 [1], partner 0.6 µg/mL	–	–	0.993	–	0.939	0.627
S. aureus DSM 20231 [2], partner 0.15 µg/mL	–	–	0.762	–	0.828	0.787
S. aureus DSM 20231 [2], partner 0.3 µg/mL	–	–	0.741	–	0.726	0.746
S. aureus DSM 20231 [2], partner 0.6 µg/mL	–	–	0.631	–	0.651	0.595
S. aureus Newman [3], partner 0.15 µg/mL	–	–	0.702	–	0.7	0.709
S. aureus Newman [3], partner 0.3 µg/mL	–	–	0.656	–	0.68	0.646
S. aureus Newman [3], partner 0.6 µg/mL	–	–	0.607	–	0.604	0.541
S. pneumoniae D39V [4], partner 1.2 µg/mL	0.919	0.929	–	0.852	–	–
S. pneumoniae D39V [4], partner 2.4 µg/mL	0.898	0.919	–	0.866	–	–
S. pneumoniae D39V [4], partner 4.8 µg/mL	0.966	0.972	–	0.91	–	–

Settings	Bliss interaction score
B. subtilis 168 [5]	0.0771
S. aureus DSM 20231 [6]	-0.0251
S. aureus Newman [7]	0.11
S. pneumoniae D39V [8]	0.0618

COc1cccc2c1C(=O)c1c(O)c3c(c(O)c1C2=O)C[C@@](O)(C(=O)CO)C[C@@H]3O[C@H]1C[C@H](N)[C@H](O)[C@H](C)O1 [Doxorubicin] + CN[C@@H]1[C@H](O)[C@H](NC)[C@H]2O[C@@]3(O)C(=O)C[C@@H](C)O[C@H]3O[C@@H]2[C@H]1O [Spectinomycin]
fitness
Settings	first compound 0.25 µg/mL	first compound 0.5 µg/mL	first compound 0.625 µg/mL	first compound 1 µg/mL	first compound 1.25 µg/mL	first compound 2.5 µg/mL
B. subtilis 168 [1], partner 2 µg/mL	–	–	0.919	–	0.905	0.62
B. subtilis 168 [1], partner 4 µg/mL	–	–	0.965	–	0.954	0.594
B. subtilis 168 [1], partner 8 µg/mL	–	–	0.817	–	0.88	0.615
S. aureus DSM 20231 [2], partner 4 µg/mL	–	–	0.901	–	0.846	0.808
S. aureus DSM 20231 [2], partner 8 µg/mL	–	–	0.882	–	0.89	0.84
S. aureus DSM 20231 [2], partner 16 µg/mL	–	–	0.789	–	0.824	0.736
S. aureus Newman [3], partner 4 µg/mL	–	–	0.796	–	0.754	0.71
S. aureus Newman [3], partner 8 µg/mL	–	–	0.797	–	0.762	0.681
S. aureus Newman [3], partner 16 µg/mL	–	–	0.713	–	0.623	0.577
S. pneumoniae D39V [4], partner 4 µg/mL	0.908	0.938	–	0.921	–	–
S. pneumoniae D39V [4], partner 8 µg/mL	0.827	0.862	–	0.838	–	–
S. pneumoniae D39V [4], partner 16 µg/mL	0.686	0.661	–	0.632	–	–

fitness, one replicate
Settings	first compound 0.625 µg/mL	first compound 1.25 µg/mL	first compound 2.5 µg/mL
S. aureus DSM 20231 [2], partner 32 µg/mL	0.768	0.732	0.624
S. aureus DSM 20231 [2], partner 64 µg/mL	0.0549	0.0594	0.0266
S. aureus Newman [3], partner 32 µg/mL	0.549	0.394	0.215
S. aureus Newman [3], partner 64 µg/mL	0.0592	0.0432	0.0224

Settings	Bliss interaction score
B. subtilis 168 [5]	0.0605
S. aureus DSM 20231 [6]	-0.0571
S. aureus Newman [7]	-0.0787
S. pneumoniae D39V [8]	0.0399
